This test has as its target T1, TBK1 (Homo sapiens, UniProt Q9UHD2).
T1 sequence (Q9UHD2 1-729): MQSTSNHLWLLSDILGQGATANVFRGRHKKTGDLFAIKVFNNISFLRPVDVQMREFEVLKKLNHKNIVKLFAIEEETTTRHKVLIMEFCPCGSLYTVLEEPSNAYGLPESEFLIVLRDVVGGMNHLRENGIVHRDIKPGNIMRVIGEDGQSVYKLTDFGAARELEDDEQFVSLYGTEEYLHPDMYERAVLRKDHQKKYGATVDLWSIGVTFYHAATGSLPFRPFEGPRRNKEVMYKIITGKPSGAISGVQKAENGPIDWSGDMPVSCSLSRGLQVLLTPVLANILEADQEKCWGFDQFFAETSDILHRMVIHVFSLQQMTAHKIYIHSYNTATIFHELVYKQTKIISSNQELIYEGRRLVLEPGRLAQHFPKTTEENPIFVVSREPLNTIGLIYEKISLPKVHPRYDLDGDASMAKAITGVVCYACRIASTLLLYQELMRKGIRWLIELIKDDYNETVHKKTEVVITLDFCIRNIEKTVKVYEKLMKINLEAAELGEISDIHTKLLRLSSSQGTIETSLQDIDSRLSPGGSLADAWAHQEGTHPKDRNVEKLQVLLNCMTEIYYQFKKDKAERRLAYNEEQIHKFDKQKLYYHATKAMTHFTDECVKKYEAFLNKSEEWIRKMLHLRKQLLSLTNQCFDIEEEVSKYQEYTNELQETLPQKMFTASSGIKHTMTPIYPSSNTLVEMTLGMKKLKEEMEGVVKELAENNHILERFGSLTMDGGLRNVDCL
The test is described as follows: SelectScreen Kinase Profiling, IC50 for TBK1. The class given is biochemical. To be noted: ATP Km app, ZLYTE; for inhibition: TBK1. Here is the method: Biochemical single point inhibition and IC50 concentrations for TBK1, IKKε (IKBKE), and off-target kinases were determined at ThermoFisher Scientific using SelectScreen Kinase Profiling Services (Madison, Wis., USA) (Tables S4A and S4B-1-7). To determine cellular potency, the human colorectal cancer carcinoma cell line HCT116 (ATCC, Manassas, Va.) was maintained in T175 flasks in complete RPMI medium; RPMI 1640 supplemented with 10% FBS, 1× Penicillin-Streptomycin solution and 1×MEM (non-essential amino acids). HCT116 cells were grown to 90-95% confluency in T175 flasks containing complete RPMI medium and transfected in bulk using Lipofectamine 2000 (Invitrogen, Carlsbad, Calif.) with 70 μg of ISG54-luciferase reporter plasmid (Elim Biopharmaceuticals Inc., Hayward, Calif.). The reporter plasmid contains a luciferase gene expression cassette under the transcriptional regulation of the promoter of the human interferon stimulated gene 54 (ISG54). Transfection of the cells was allowed to take place for 6 hours, after which the cells were harvested by treatment with 0.25% trypsin EDTA (Corning Inc., Corning, N.Y.). Trypsinized cells were added to 384-well poly-d-lysine treated black clear bottom tissue culture assay plates (Greiner Bio-One GmbH, Kremsmünster, Austria) at a density of 20,000 cells/well in 80 μL of complete RPMI medium and incubated overnight. After 16-18 hours post-transfection, the assay plates were washed with PBS (Corning Inc., Corning, N.Y.), followed by addition of 80 μL/well of serum-free RPMI 1640 medium containing 1× Penicillin-Streptomycin solution, 1×MEM and 350 nL of DMSO or titrations of Compound 1. Compound 1 titrations were generated by 1.5-fold dilution steps in two overlapping serial dilution series to generate a 40-point compound dose range. After incubation at 37° C. for 1 hour, the cells were stimulated with Poly(I:C) (InvivoGen, San Diego, Calif.) at a final concentration of 15 μg/mL in Optimem media (Life Technologies, Rockville, Md.). The assay plates were incubated for 5 hours at 37° C., followed by addition of One-Glo luciferase firefly reagent (Promega, Madison, Wis.) at 1:1 volume/well and luminescence was measured in an EnVision Multilabel Plate Reader (PerkinElmer, Santa Clara, Calif.). The EC50 values were calculated from the fit of the dose-response curves to a four-parameter equation. All EC50 values represent geometric mean values of a minimum of four determinations.

Like-named read-outs stand apart in the source and are kept apart here.

A word on the inhibition: it is how much of the control response was suppressed. By IC50 is commonly meant the midpoint of a concentration-inhibition curve.

For the compound `N#Cc1cc(-c2ncnc(Nc3ccc(N4CCN(C5COC5)CC4)cc3)n2)ccc1OC1CCOCC1` [Compound 1, 5-(4-((4-(4-(oxetan-3-yl)piperazin-1-yl)phenyl)amino)-1,3,5-triazin-2-yl)-2-((tetrahydro-2H-pyran-4-yl)oxy)benzonitrile], the Hillslope was 1.12 and the half-inhibitory concentration (IC50) was found to be 1.04 nM. Also, under “read-out: % Inhibition 1”, the inhibition was 91%. Further, the inhibition (read-out: % Inhibition 2) was 99%. Moreover, the inhibition (read-out: % Inhibition Avg) was 95%. Under “IC50 relative to IKBKE IC50”, the “fold selectivity (IKBKE)” value is 0.2 fold. Also, the “fold selectivity (TBK1)” value (IC50 relative to TBK1 IC50) was 1.0 fold.
